# Source: patent US9517223B2, “Methods to treat neurodegenerative diseases” (Children's Medical Center Corporation, priority 2012, dated 2016)
# Columns and labels:
# [1] = mice, 10 mg/kg IP injection for several weeks; cited from earlier work
# [2] = system: ALS patient-derived motor neurons (39b); test: Extracellular MEA recording of spontaneous firing, SOD1 A4V ALS motor neurons; conditions: retigabine 10 μM; two additional MEAs from separate differentiations
smiles,measurement,setting,value
CCOC(=O)Nc1ccc(NCc2ccc(F)cc2)cc1N [Retigabine],side effects,[1],without apparent side effects
same,percentage of active neurons blocked (spontaneous firing),[2],100%
